This note sets out measurements from article PMC6572135, “N-Methyl-D-glucamine–Calix[4]resorcinarene Conjugates: Self-Assembly and Biological Properties” (Molecules, 2019).

≈ marks a conversion by molar mass, not a printed value.

For orientation: IC50 means the concentration at which inhibition is half-maximal. One may read the melting point as the temperature of the solid-liquid transition.

The subject of data set [1] is C.albicans 855–653. Nature of the data set: Fungistatic activity (MIC), dilution method. Format: cell-based. The settings on record: Candida albicans; C.albicans 855–653, fungistatic activity; read-out: Minimal Inhibiting Concentration (MIC). The protocol:
(§1) In vitro bacteriostatic and fungistatic activities of the macrocycles were evaluated against pathogenic representatives of Gram-positive bacteria (Staphylococcus aureus 209p, Bacillus cereus 8035), Gram-negative bacteria (Pseudomonas aeruginosa 9027, Escherichia coli F-50), and yeast (Trichophyton mentagrophytes var. gypseum 1773, Aspergillus niger BKMF-1119, Candida albicans 885–653). Minimal inhibitory concentrations (MICs) were estimated by conventional dilution methods for bacteria and fungi. The antibacterial and antifungal assays were performed in Hottinger broth (HiMe-dia Laboratories Pvt. Ltd. Mumbai, India) and Sabouraud dextrose broth (HiMedia Laboratories Pvt. Ltd.) (bacteria 3 × 10^5 cfu/mL and yeast 2 × 10^4 cfu/mL). The bactericidal and fungicidal activities were determined as described earlier. The tests were repeated three times.

Data set [2] in a line: Stability of water solutions. Format: physicochemical. Conditions: water without MG.
A short description of data set [3]: Conductometry, critical aggregation concentration. The format is physicochemical. The settings on record: water solution, 25 °C; GCR-2 in the presence of two-fold excess of MG. The protocol:
Firstly, self-assembly of GCR-1 was studied by conductometric measurements (Figure 1). Specific conductivity increases proportionately with the GCR-1 concentration in water solution. Inflection on the plot appears at 14 mM, and after this critical aggregation concentration (CAC) the increment rate of conductivity reduces because the aggregates transfer charge less efficiently than monomers. Remarkably, modification of calix[4]resorcinarene by N-methyl-D-glucamine fragment facilitates self-aggregation of macrocycle in water medium (Figure 1). The CAC value for calix[4]resorcinarene (CR-1) without meglumine units at the upper rim is 20 mM that is greater than that for meglumine-modified calix[4]resorcinarene. The driving forces of intermolecular aggregates’ formation are probably hydrogen bonds between hydroxyl groups on the GCR-1 upper rim, so the presence of additional OH-groups in the meglumine group reinforces this noncovalent interaction. A stable pH value, which can be observed over a wide range of concentrations, verifies that the N-methyl-D-glucamine fragment is an effective buffer component (Figure S4). […] As a result, the aggregation of this calix[4]resorcinarene was studied in water solutions at the presence of two-fold excess of N-methyl-D-glucamine (MG). […] Specific conductivity values were measured at least three times for each concentration. […]

The nature of data set [4]: Dynamic light scattering, hydrodynamic diameter. Format: physicochemical. Conditions: water.
Data set [5] has as its system S. aureus 209P. Kind of data set: Bacteriostatic activity (MIC), dilution method. Format: cell-based. The settings on record: Staphylococcus aureus, read-out: Minimal Inhibiting Concentration (MIC). As for the experimental part:
as §1

Data set [6] concerns B. cereus 8035. Nature of the data set: Bacteriostatic activity (MIC), dilution method. The format is cell-based. The settings on record: Bacillus cereus; B. cereus 8035, bacteriostatic activity; read-out: Minimal Inhibiting Concentration (MIC). As for the experimental part:
as §1

In data set [7] the test system is S. aureus 209P. Nature of the data set: Bactericidal activity (MBC). Format: cell-based. The settings on record: Staphylococcus aureus, read-out: Minimal Bactericidal Concentration (MBC). As for the experimental part:
as §1

In data set [8] the test system is B. cereus 8035. Kind of data set: Bactericidal activity (MBC). Format: cell-based. The settings on record: Bacillus cereus; B. cereus 8035, bactericidal activity; read-out: Minimal Bactericidal Concentration (MBC). As for the experimental part: as §1
The test system of the next data set is Chang liver cell line. Kind of data set: Cell viability evaluation (Cytell Cell Imaging). The format is cell-based. The settings on record: 50% inhibition of cell growth, human hepatocytes, read-out: IC50 on Chang Liver Cells Line. The protocol:
Cell viability of human hepatocytes cells (Chang liver cell line from the N. F. Gamaleya Research Center of Epidemiology and Microbiology) toward macrocycles was determined by means of multifunctional system Cytell Cell Imaging (GE Healthcare, Issaquah, WA, USA) using application Cell Viability BioApp and Automated Imaging BioApp. The cells were dispersed on a 96-well plate at a concentration of 200,000 cells/mL and cultivated in CO2-incubator at 37 °C. Next, the culture medium was sampled in 24 h, and 150 μL of the studied dispersions was added to each well. The experiments were repeated three times. Intact cells cultivated simultaneously with the studied ones served as a reference. The fraction of the grown-up cells was expressed in % vs. reference cells. Degree of cell growth inhibition under the influence of testing agent was calculated by equation:N (%) = (1 − Exp/Control) × 100(1) where Exp is the quantity of uninhibited cells in sample studied, Control is the quantity of uninhibited cells in control sample. Then the IC50 (concentration which caused 50% cell growth inhibition) was determined from curve of cell cultural growth versus macrocycle concentration. The experiments were repeated three times and results are presented as the mean ± standard deviation.

The nature of the next data set: Hemolytic activity. Format: cell-based. Conditions: human erythrocyte suspension, human erythrocytes, 37 °C. As for the experimental part: The hemolytic activity of the compounds was estimated by comparing the optical density of a solution containing a compound being tested and the blood with the optical density of the blood upon 100% hemolysis. A 10% suspension of human erythrocytes was used as an object of investigation; an erythrocytic mass with heparin was washed three times with a physiologic saline (0.9% NaCl) solution, centrifuged for 10 min at 800× g, and resuspended in the physiologic saline (0.9% NaCl) solution to a concentration of 10%. The concentrations of the compounds that corresponded to the MIC for the bacterial test strains were prepared in a physiologic saline (0.9% NaCl) solution (supplemented with 5% DMSO), and 4.5 mL of a compound at the corresponding dilution was added to 0.5 mL of a 10% suspension of erythrocytes. Samples were incubated for 1 h at 37 °C and centrifuged for 10 min at 2000× g. The release of hemoglobin was controlled by measuring the optical density of the supernatant on an AP-101 digital photoelectrocolorimeter (Apel, Kawaguchi, Japan) at 540 nm. Simultaneously, control samples were prepared: controls for zero hemolysis (blank): 0.5 mL of a 10% suspension of erythrocytes was added to a physiologic saline (0.9% NaCl) solution; 100% hemolysis: 0.5 mL of a 10% suspension of erythrocytes was added to 4.5 mL of distilled water. The experiments were repeated three times and data are presented as the mean ± standard deviation.

The subject of data set [9] is C.albicans 855–653. Kind of data set: Fungicidal activity (MFC). The format is cell-based. The settings on record: Candida albicans; C.albicans 855–653, fungicidal activity; read-out: Minimal Fungicidal Concentration (MFC). As for the experimental part:
as §1

Take `CC1c2cc(c(O)c(CN(C)C[C@@H](O)[C@H](O)[C@@H](O)[C@@H](O)CO)c2O)C(C)c2cc(c(O)c(CN(C)C[C@@H](O)[C@H](O)[C@@H](O)[C@@H](O)CO)c2O)C(C)c2cc(c(O)c(CN(C)C[C@@H](O)[C@H](O)[C@@H](O)[C@@H](O)CO)c2O)C(C)c2cc1c(O)c(CN(C)C[C@@H](O)[C@H](O)[C@@H](O)[C@@H](O)CO)c2O` (stereo partly drawn) [GCR-2, N-methyl-D-glucaminemethyl methylcalix[4]resorcinarene]: the melting point is over 350 °C. The MIC in the data set with C.albicans 855–653 [1] is over 500 µM. Besides, the “Stability of water solutions” value in data set [2] was “unstable and eventually precipitate”. The “CAC, conductometry” value in data set [3] is recorded as 7.9 mM. In data set [4] (15 mM GCR-2–30 mM MG mixed system), the Hydrodynamic diameter was 3.8 nm. In data set [4] (mixed 1 mM GCR-2–2 mM MG system), this compound gave a Hydrodynamic diameter of 2 nm. Also, the MIC in the data set on S. aureus 209P [5] was 130 ± 10 µM (≈ 179 µg/mL). In addition, the MIC with B. cereus 8035 [6] was found to be 250 µM (≈ 343 µg/mL). For the same compound, in the data set with S. aureus 209P [7], the MBC turned out to be 1000 ± 80 µM (≈ 1370 µg/mL). Moreover, the MBC with B. cereus 8035 [8] is over 1000 µM. In the data set with Chang liver cell line, the IC50 was over 100 µM. In the data set “Hemolytic activity” (concentration 0.125 mM), the hemolysis at 1 h, 0.125 mM amounted to 21.3 ± 1.7%. Besides, the hemolysis at 1 h, 0.25 mM in the data set “Hemolytic activity” (concentration 0.25 mM) stood at 31.6 ± 2.7%. The hemolysis at 1 h, 0.5 mM in the data set “Hemolytic activity” (concentration 0.50 mM) came to 38.1 ± 3.4%. The MFC with C.albicans 855–653 [9] is over 500 µM.
